In article PMC4832822, “Investigating the Influence of (Deoxy)fluorination on the Lipophilicity of Non‐UV‐Active Fluorinated Alkanols and Carbohydrates by a New log P Determination Method” (Angewandte Chemie (International Ed. in English), 2015):
Several values for one entry are separate records, joined by “and”; a condition that tells them apart may be missing. Equal entries are not always repeated. Where two headings read alike, the source gives them in different places.

Assays:
[1] = milogP calculated using Molinspiration Cheminformatics; conditions: Table SI14
[2] = log P determination by 19F NMR shake-flask method with internal fluorinated reference (octanol/water); conditions: for ΔlogP (exp. logP vs logP lit): Table SI12
[3] = cited from earlier work
[4] = octanol/water, error (mean logP to three decimals), reference TFE (+0.36)
[5] = octanol/water, logP, 19F NMR, 25 °C, average value
[6] = octanol/water, logP, single experiment, reference TFE (+0.36)
[7] = octanol/water, Average logP, 25 °C, reference TFE (+0.36)
[8] = shake-flask, 1H or 19F NMR, temperature not reported, ref N. Muller, J. Pharm. Sci. 1986
[9] = ref chemidplus database and N. Muller 1986

Row | Compound | ΔlogP (milogP vs logP exp) [1] | logP [2, 4] | logP [2, 5] | logP [2, 6] | logP [2, 7] | ΔlogP (exp. logP vs logP lit) [2] | Average logP ([2]; 25 °C, reference TFE (+0.36)) | further results
1 | Oc1ccccc1F [SI4, o-fluorophenol] | +0.13 | 1.7 | 1.7 | 1.7 | – | – | – | logP (lit) ([3]; method and temperature not provided, ref C. Hansch, A. Leo, Substituent constants, Wiley 1979): +1.64; logP (lit) ([3]; ref chemidplus database, Hansch, Leo 1979 and Fujita, Iwasa, Hansch 1964 (shake-flask, spectrophotometer, 25 ± 5 °C)): +1.71
2 | CC(O)C(F)(F)F (stereo not drawn) [compound 6] | +0.27 | 0.715 | 0.7 | 0.712 | 0.71 | – | – | logP (lit) ([3]; ref chemidplus database, Dillingham et al. 1973 and Hansch, Leo 1979): +0.71; logP (lit) [3, 8]: +0.70
3 | OC(C(F)(F)F)C(F)(F)F [compound 7] | – | 1.69 | – | 1.69 | 1.69 | +0.03 | – | logP (lit) ([3]; method and temperature not provided, ref U.S. National Library of Medicine online database (chemidplus)): +1.66
4 | OCCC(F)(F)F [compound 12] | +0.47 | 0.414 | – | 0.413 | 0.41 | +0.02 | – | logP (lit) [3, 9]: +0.39
5 | OCC(F)(F)C(F)(F)F [compound 13, CF3CF2CH2OH] | +0.05 | 1.2 | 1.2 | 1.2 | 1.2 | -0.03 | +1.20 | logP ([2]; octanol/water, average logP, mA 2.0 mg, mREF 0.8 mg, reference CF3CH2OH): 1.2; logP ([2]; octanol/water, average logP, mA 10.0 mg, mREF 4.0 mg): 1.2; logP ([2]; octanol/water, average logP, mA 70.0 mg, mREF 30.0/70.0 mg): 1.18; logP ([2]; octanol/water, average logP, mA 120.0 mg, mREF 60.0 mg): 1.18; logP ([2]; octanol/water, logP, single experiment, mA 2.0 mg, mREF 0.8 mg, reference CF3CH2OH): 1.2; logP ([2]; octanol/water, logP, single experiment, mA 10.0 mg, mREF 4.0 mg): 1.2; logP ([2]; octanol/water, logP, single experiment, mA 70.0 mg, mREF 30.0/70.0 mg): 1.18; logP ([2]; octanol/water, logP, single experiment, mA 120.0 mg, mREF 60.0 mg): 1.17; mean logP ([2]; reference TFE (+0.36)): 1.200; logP ([2]; single experiment, mA 2.0 mg, mREF 0.8 mg, reference CF3CH2OH): 1.200; logP ([2]; single experiment, mA 10.0 mg, mREF 4.0 mg): 1.200 and 1.195; logP ([2]; single experiment, mA 70.0 mg, mREF 30.0/70.0 mg): 1.179; logP ([2]; single experiment, mA 120.0 mg, mREF 60.0 mg): 1.178 and 1.174; logP ([2]; single experiment, reference TFE (+0.36)): +1.200 and +1.199; logP (lit) ([3]; ref chemidplus database, Hansch, Leo 1979 and Leo, Elkins, Chem. Rev. 1971): 1.23
6 | OCCCC(F)(F)F [compound 23, 4,4,4-trifluoro-1-butanol] | +0.24 | 0.91 | 0.91 | 0.918 | 0.91 | +0.01 | +0.91 | logP ([2]; octanol/water, 19F NMR, 25 °C, average value): +0.91; logP (lit) [3, 9]: +0.90
7 | OCCCCC(F)(F)F [compound 35] | +0.43 | 1.22 | 1.22 | 1.22 | 1.22 | +0.07 | +1.22 | logP (lit) [3, 8]: +1.15
